The values below come from article PMC10538207, “Bioactive-Guided Phytochemical Investigations, In Vitro and In Silico Alpha-Glucosidase Inhibition of Two Vietnamese Medicinal Plants Dicranopteris linearis and Psychotria adenophylla” (Pharmaceuticals, 2023).

The target of one assay is T1, alpha-glucosidase (Saccharomyces cerevisiae, UniProt P53341).
T1 construct: purchased Sigma-Aldrich Co. (Saint Louis, MO, USA)
The assay can be described thus: biochemical. As to conditions: for Binding Affinity Exp: ΔGexp calculated from IC50, T=300 K. The source says: The conditions followed that of our previous report with small modifications.

Another assay deals with HepG2 cells. The conditions noted are these: read-out: hepatoprotective activity EC50; cited from earlier work.
Setting [1] is: isolated compounds, read-out: Alpha-glucosidase inhibition IC50 (isolated compounds).

Where two headings read alike, the source gives them in different places.

T1 sequence (P53341 whole entry): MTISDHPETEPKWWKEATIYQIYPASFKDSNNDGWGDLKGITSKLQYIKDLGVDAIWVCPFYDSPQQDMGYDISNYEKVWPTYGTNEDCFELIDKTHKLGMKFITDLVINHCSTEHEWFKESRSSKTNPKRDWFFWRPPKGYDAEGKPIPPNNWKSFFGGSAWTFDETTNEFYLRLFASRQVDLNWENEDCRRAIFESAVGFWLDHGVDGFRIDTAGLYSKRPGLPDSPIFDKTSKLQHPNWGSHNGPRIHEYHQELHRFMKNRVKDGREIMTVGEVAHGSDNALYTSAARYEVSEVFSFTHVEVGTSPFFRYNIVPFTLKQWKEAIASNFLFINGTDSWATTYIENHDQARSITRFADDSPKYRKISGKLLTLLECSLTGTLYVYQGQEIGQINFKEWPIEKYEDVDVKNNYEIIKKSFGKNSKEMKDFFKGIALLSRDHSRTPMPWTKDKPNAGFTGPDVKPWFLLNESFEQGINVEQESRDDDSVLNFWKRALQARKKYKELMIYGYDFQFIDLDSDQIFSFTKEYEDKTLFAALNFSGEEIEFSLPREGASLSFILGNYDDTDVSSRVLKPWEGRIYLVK

For the compound `CC[C@H](CC[C@@H](C)[C@H]1CC[C@H]2[C@@H]3CC=C4C[C@@H](O)CC[C@]4(C)[C@H]3CC[C@]12C)C(C)C` [DL1, β-sitosterol], the IC50 on alpha-glucosidase (setting [1]) was above 300 µM. Same read-out and setting: the figure for `CC[C@H](CC[C@@H](C)[C@H]1CC[C@H]2[C@@H]3CC=C4C[C@@H](O[C@@H]5O[C@H](CO)[C@@H](O)[C@H](O)[C@H]5O)CC[C@]4(C)[C@H]3CC[C@]12C)C(C)C` [DL2, daucosterol] is above 300 µM. As to `CC[C@H](CC[C@@H](C)[C@H]1CC[C@H]2[C@@H]3CC(O)C4=CC(=O)CC[C@]4(C)[C@H]3CC[C@]12C)C(C)C` (stereo partly drawn) [DL3, 6-hydroxystigmast-4-en-3-one], the IC50 at alpha-glucosidase (setting [1]) stood at 177 ± 3.6 µM. Also, the “Binding Affinity Exp” value on alpha-glucosidase is -5.1 kcal/mol. Consider `CC(C)(C)c1ccc(C(=O)c2ccc(C(C)(C)C)cc2C(C)(C)C)c(C(C)(C)C)c1` [DL4, 2,2′,4,4′-tetra-tert-butylbenzophenone], for which the IC50 on alpha-glucosidase (setting [1]) is above 300 µM. In the case of `CC1(C)C[C@H](O)C[C@@](C)(O)/C(O)=C\C1=O` [DL5, chakyunglupulin B], the IC50 on alpha-glucosidase (setting [1]) came to 82.2 ± 2.2 µM. Further, the “Binding Affinity Exp” value on alpha-glucosidase was -5.6 kcal/mol.

In the case of `O=c1c(-c2ccc(O)cc2)coc2cc(O)ccc12` [DL6, daidzein], at alpha-glucosidase, inhibition was half-maximal at 66.9 ± 1.7 µM (IC50). With `COc1cc(-c2oc3cc(O)c(OC)c(O)c3c(=O)c2OC)ccc1O` [DL8, jaceidin], the IC50 at alpha-glucosidase (setting [1]) is 282 ± 9.2 µM. The “Binding Affinity Exp” value at alpha-glucosidase is -4.9 kcal/mol.

Take `COc1ccc(-c2oc3cc(O)c(OC)c(O)c3c(=O)c2OC)cc1OC` [DL9, bonanzin]: the IC50 at alpha-glucosidase (setting [1]) was above 300 µM. Consider `O=c1cc(-c2ccc(O)c(O)c2)oc2cc(O)cc(O)c12` [DL10, luteolin], for which, on alpha-glucosidase (setting [1]), the IC50 was determined as 67.1 ± 1.2 µM. Compound `O=c1c(O[C@@H]2O[C@H](CO)[C@@H](O)[C@H](O)[C@H]2O)c(-c2ccc(O)c(O)c2)oc2cc(O)cc(O)c12` [DL12, isoquercetin] returned a concentration for half-maximal inhibition (IC50) at alpha-glucosidase of 99.8 ± 1.2 µM.

With `COc1c(-c2ccc(O)c(O)c2)oc2cc(O)cc(O)c2c1=O` [PA1, 3-O-methylquercetin], the IC50 on alpha-glucosidase (setting [1]) was above 300 µM. Same read-out and setting: the figure for `COc1cc(/C=C/C=O)ccc1O` [PA4, coniferyl aldehyde] is 250 ± 11.4 µM. Turning to `Cc1cc(O)c2c(c1)C(=O)c1cccc(O)c1C2=O` [PA5, chrysophanol], at alpha-glucosidase, the IC50 was determined as 98.2 ± 2.2 µM and the “Binding Affinity Exp” value was -5.5 kcal/mol. For the compound `COc1cc(/C=C/C(=O)NC(=O)c2ccc(O)c(OC)c2)ccc1O` [PA6, tribulusimide D], in the assay with HepG2 cells, the EC50 was 13.5 µM. Besides, the 50% inhibitory concentration (IC50) on alpha-glucosidase (setting [1]) was 76.2 ± 2.9 µM. The “Binding Affinity Exp” value at alpha-glucosidase was -5.7 kcal/mol.

On to `O=Cc1ccc(CO)o1` [PA7, 5-hydroxymethylfurfural], for which the half-inhibitory concentration (IC50) at alpha-glucosidase (setting [1]) was above 300 µM.
